According to EP2790511B1 (Merck Sharp & Dohme Corp., priority 2011, dated 2013):

target: T1, hROMK (hKir1.1) (Homo sapiens, UniProt P48048); assay: Thallium Flux Assay; format: cell-based; conditions: HEK293 cells stably expressing hROMK (hKir1.1), FLIPR-Tetra; read-out: Thallium Flux IC50
T1 construct: expressed in transfected cells
T1 sequence (P48048 1-391): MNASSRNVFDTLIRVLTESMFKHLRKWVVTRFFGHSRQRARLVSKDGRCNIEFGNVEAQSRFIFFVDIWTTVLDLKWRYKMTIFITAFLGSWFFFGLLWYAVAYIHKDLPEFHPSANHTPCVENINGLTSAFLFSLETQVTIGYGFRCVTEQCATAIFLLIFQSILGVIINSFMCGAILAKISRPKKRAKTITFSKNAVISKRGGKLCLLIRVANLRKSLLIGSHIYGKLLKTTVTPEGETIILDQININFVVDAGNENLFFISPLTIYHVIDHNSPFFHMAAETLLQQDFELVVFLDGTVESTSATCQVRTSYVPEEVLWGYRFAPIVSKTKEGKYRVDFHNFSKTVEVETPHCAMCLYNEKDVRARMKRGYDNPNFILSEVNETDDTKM
Protocol: Cell Culture Conditions- HEK293 cells stably expressing hROMK (hKir1.1) were grown at 37°C in a 10%CO2 humidified incubator in complete growth media: Dulbecco's Modified Eagle Medium supplemented with non-essential amino acids, Penicillin/Streptomycin/Glutamine, G418 and FBS. At >80% confluency, aspirate the media from the flask and rinse with 10 mL Calcium/Magnesium-free PBS. […] To dislodge the cell, gently bang the side of the flask with your hand. Triturate the cells completely and then transfer the cells to 25 mL complete media. Centrifuge at 1,500 rpm for 6 min followed by resuspension in complete growth media and determine cell concentration. […] Under ideal growth conditions and appropriate tissue culture practices, this cell line is stable for 40-45 passages.
• FluxOR™ Reagent (Component A) • FluxOR™ Assay Buffer (Component B) - 10X Concentrate • PowerLoad™ Concentrate (Component C) - 100X Concentrate • Probenecid (Component D) - Lyophilized sample is kept at -20°C. Water soluble, 100X after solubilization in 1 mL water. […] Store at 4°C. • Thallium sulfate (Tl2SO4) Concentrate (Component G) - 50 mM in water. Store at 4°C • DMSO (dimethyl sulfoxide, Component H) - 1 mL (100%)
• 1000X FluxOR™ Reagent: Reconstitute a vial of component A in 100 µl DMSO; Mix well; Store 10 µl aliquots at -20°C • 1X FluxOR™ Assay Buffer: Dilute Component B 10-fold with water; Adjust pH to 7.4 with Hepes/NaOH; Filter and store at 4°C • Probenecid/Assay Buffer: 100 mL of 1X FluxOR™ Assay Buffer; 1 mL of reconstituted component D; Store at 4°C • Loading Buffer (per microplate): 10 µl 1000X FluxOR™ Reagent; 100 µl component C; 10 mL Probenecid/Assay Buffer • Compound Buffer (per microplate): 20 mL Probenecid/Assay Buffer; 0.3 mM ouabain (10 mM ouabain in water can be stored in amber bottle/aluminum foil at room temperature); Test compound • 1X FluxOR™Chloride-Free Buffer: Prepare 1X working solution in water. Can be stored at room temperature • Stimulant Buffer (prepared at 5X final concentration in 1X FluxOR™Chloride-Free Buffer): 7.5 mM Thallium sulfate and 0.75 mM Potassium sulfate (to give a final assay concentration of 3 mM Thallium/ 0.3 mM Potassium). Store at 4°C when not in use. If kept sterile, this solution is good for months.
Assay protocol- The ROMK channel functional thallium flux assay is performed in 384 wells, using the FLIPR-Tetra instrument. HEK-hKir1.1 cells are seeded in Poly-D-Lysine microplates and kept in a 37°C-10%CO2 incubator overnight. On the day of the experiment, the growth media is replaced with the FluxOR™ reagent loading buffer and incubated, protected from light, at ambient temperature (23-25°C) for 90 min. The loading buffer is replaced with assay buffer ± test compound followed by 30 min incubation at ambient temperature, where the Thallium/Potassium stimulant is added to the microplate.
• 1. Seed HEK-hKir1.1 cells (50 µl at 20,000 cells/well) in 384-well PDL coated Microplates • 2. Allow cells to adhere overnight in humidified 37°C/10%CO2 incubator • 3. Completely remove cell growth media from microplate and replace with 25 µl loading buffer • 4. Incubate Microplate at room temperature, protected form light, for 90 min • 5. Remove loading buffer and replace with 25 µl 1x Assay Buffer ± test compound. • 6. Incubate microplate at room temperature, protected form light, for 30 min • 7. […] Excitation = 400 nm, Emission = 460 & 580 nm. Collect data for ∼ 10 min.
Data Calculation- The fluorescence intensity of wells containing 3 µM of a standard control ROMK inhibitor of the present invention is used to define the ROMK-sensitive component of thallium flux. Fluorescence in the presence of test compounds is normalized to control values to provide % fluorescence change.

Molecule	IC50
Cc1c(C2CN3CCN(C(=O)Cc4cnc(-n5cnnn5)nc4)CC3CCO2)ccc2c1COC2=O (single isomer, unassigned) [Example 165, 4-methyl-5-(2-{[2-(1H-tetrazol-1-yl)pyrimidin-5-yl]acetyl}octahydro-2H-pyrazino[1,2-d][1,4]oxazepin-7-yl)-2-benzofuran-1(3H)-one]	0.21 µM
Cc1c([C@H]2CN3CCN(C(=O)Cc4ccc(-n5cnnn5)nc4)C[C@H]3CCO2)ccc(F)c1C#N (single isomer, unassigned) [Example 169]	0.18 µM
Cc1c([C@@H]2CN3CCN(C(=O)Cc4ccc(-n5cnnn5)nc4)C[C@H]3CCO2)ccc(F)c1C#N (single isomer, unassigned) [Example 171]	0.27 µM
N#Cc1c(F)ccc([C@H]2CN3CCN(C(=O)Cc4ccc(-n5cnnn5)nc4)C[C@H]3CO2)c1Cl [Example 10, 2-chloro-6-fluoro-3-[(3S,9aS)-8-{[6-(1H-tetrazol-1-yl)pvridin-3-yl]acetyl}octahydropyrazino[2,1-c][1,4]oxazin-3-yl]benzonitrile]	0.07 µM
N#Cc1c(F)ccc([C@H]2CN3CCN(C(=O)Cc4ccc(-n5cnnn5)nc4)C[C@H]3CO2)c1F [Example 12, 2,6-difluoro-3-[(3S,9aS)-8-{[6-(1H-tetrazol-1-yl)pyridin-3-yl]acetyl}octahydropyrazino[2,1-c][1,4]oxazin-3-yl]benzonitrile]	0.12 µM
Cc1c([C@H]2CN3CCN(C(=O)Cc4cnc(-n5cnnn5)nc4)C[C@H]3CO2)ccc2c1COC2=O [Example 15, 4-methyl-5-[(3S,9aS)-8-{[2-(1H-tetrazol-1-yl)pyrimidin-5-yl]acetyl}octahydropyrazino[2,1-c][1,4]oxazin-3-yl]benzofuran-1(3H)-one]	0.14 µM
Cc1c([C@@H]2CN3CCN(C(=O)Cc4cnc(-n5cnnn5)nc4)C[C@H]3CO2)ccc2c1COC2=O [Example 16]	0.48 µM
Cc1c(C#N)cccc1[C@@H]1CN2CCN(C(=O)Cc3cnc(-n4cnnn4)nc3)C[C@H]2CO1 [Example 17, 2-methyl-3-[(3R,9aS)-8-{[2-(1H-tetrazol-1-yl)pyrimidin-5-yl]acetyl}octahydropyrazino[2,1-c][1,4]oxazin-3-yl]benzonitrile]	0.16 µM
Cc1c(C#N)cccc1[C@H]1CN2CCN(C(=O)Cc3cnc(-n4cnnn4)nc3)C[C@H]2CO1 [Example 18, 2-methyl-3-[(3S,9aS)-8-{[2-(1H-tetrazol-1-yl)pyrimidin-5-yl]acetyl}octahydropyrazino[2,1-c][1,4]oxazin-3-yl]benzonitrile]	0.32 µM

same assay, conditions: Thallium Flux IC50

Molecule	IC50
Cc1c(C2CN3CCN(C(=O)Cc4ccc(-n5cnnn5)nc4)CC3CCO2)ccc2c1COC2=O (single isomer, unassigned) [Example 163, 4-methyl-5-(2-{[6-(1H-tetrazol-1-yl)pyridin-3-yl]acetyl}octahydro-2H-pyrazino[1,2-d][1,4]oxazepin-7-yl)-2-benzofuran-1(3H)-one]	0.21 µM
Cc1c(C2CN3CCN(C(=O)Cc4ccc(-n5cnnn5)nc4)CC3CCO2)ccc2c1COC2=O (single isomer, unassigned) [Example 164, 4-methyl-5-(2-{(6-(1H-tetrazol-1-yl)pyridin-3-yl]acetyl}octahydro-2H-pyrazino[1,2-d][1,4]oxazepin-7-yl)-2-benzofuran-1(3H)-one]	0.65 µM
Cc1c([C@@H]2CN3CCN(C(=O)Cc4ccc(-n5cnnn5)nc4)C[C@@H]3CCO2)ccc(F)c1C#N (single isomer, unassigned) [Example 170]	0.24 µM
Cc1c([C@H]2CN3CCN(C(=O)Cc4cnc(-n5cnnn5)nc4)C[C@H]3CCO2)ccc(F)c1C#N (single isomer, unassigned) [Example 172]	0.22 µM
Cc1c([C@@H]2CN3CCN(C(=O)Cc4ccc(-n5cnnn5)nc4)C[C@H]3CO2)ccc(F)c1C#N [Example 5, 6-fluoro-2-methyl-3-[(3R,9aS)-8-{[6-(1H-tetrazol-1-yl)pyridin-3-yl]acetyl}octahydropyrazino[2,1-c][1,4]oxazin-3-yl]benzonitrile]	0.05 µM
Cc1c([C@H]2CN3CCN(C(=O)Cc4cnc(-n5cnnn5)nc4)C[C@@H]3CO2)ccc(F)c1C#N [Example 9, 6-fluoro-2-methyl-3-[(3S,9aR)-8-{[2-(1H-tetrazol-1-yl)pyrimidin-5-yl]acetyl}octahydropyrazino[2,1-c][1,4]oxazin-3-yl]benzonitrile]	0.18 µM
N#Cc1c(F)ccc([C@@H]2CN3CCN(C(=O)Cc4ccc(-n5cnnn5)nc4)C[C@H]3CO2)c1F [Example 11, 2,6-difluoro-3-[(3R,9aS)-8{[6-(1H-tetrazol-1-yl)pyridin-3-yl]acetyl}octahydropyrazino[2,1-c][1,4]oxazin-3-yl]benzonitrile]	0.09 µM
Cc1c([C@@H]2CN3CCN(C(=O)Cc4cnc(-n5cnnn5)nc4)C[C@H]3CO2)ccc(F)c1C#N [Example 14]	0.08 µM
C[C@@H]1Cc2cc([C@@H]3CN4CCN(C(=O)Cc5cnc(-n6cnnn6)nc5)C[C@H]4CO3)ccc2C(=O)O1 [Example 19]	0.16 µM
C[C@H]1Cc2cc([C@@H]3CN4CCN(C(=O)Cc5cnc(-n6cnnn6)nc5)C[C@H]4CO3)ccc2C(=O)O1 [Example 20, (3S)-3-methyl-6-[(3R,9aS)-8-{[2-(1H-tetrazol-1-yl)pyrimidin-5-yl]acetyl}octahydropyrazino[2,1-c][1,4]oxazin-3-yl]-3,4-dihydro-1H-isochromen-1-one]	0.17 µM
Cc1c([C@H]2CN3CCN(C(=O)Cc4ccc(-n5cnnn5)nc4)C[C@H]3CO2)ccc2c1COC2=O [Example 21, 4-methyl-5-[(3S,9aS)-8-{[6-(1H-tetrazol-1-yl)pyridin-3-yl]acetyl}octahydropyrazino[2,1-c][1,4]oxazin-3-yl]-2-benzofuran-1(3H)-one]	0.1 µM
Cc1c([C@@H]2CN3CCN(C(=O)Cc4ccc(-n5cnnn5)nc4)C[C@H]3CO2)ccc2c1COC2=O [Example 22, 4-methyl-5-[(3R,9a,S)-8-{[6-(1H-tetrazol-1-yl)pyridin-3-yl]acetyl}octahydropyrazino[2,1-c][1,4]oxazin-3-y]-2-benzofuran-1(3H)-one]	0.16 µM
Cc1c([C@@H]2CN3CCN(C(=O)Cc4ccc(-n5cnnn5)nc4)C[C@@H]3CO2)ccc2c1COC2=O [Example 23]	0.07 µM

same assay, conditions: read-out: Thallium Flux IC50

Molecule	IC50
2,6-difluoro-3-[3R,9aS)-8-{[2-methyl-6-(1H-tetrazol-1-vl)pvridin-3-yl]acetyl}octahydropyrazino[2,1-c][1,4]oxazin-3-yl]benzonitrile [Example 89]	0.07 µM
O=C1OCCc2cc([C@@H]3CN4CCN(C(=O)Cc5ccc(-n6cnnn6)nc5)C[C@H]4CO3)ccc21 [Example 1]	0.08 µM
